In ChEMBL document CHEMBL5465560, “Selectivity Literature for EUbOPEN Chemogenomic Library” (2024):

Experiments:
[1] = target: Serine/threonine-protein kinase mTOR (Homo sapiens, UniProt P42345); test: Selectivity interaction (KinomeScan (DiscoverX)) EUB0000655a MTOR; conditions: at 10 µM
[2] = target: Casein kinase I isoform alpha (Homo sapiens, UniProt P48729); test: Selectivity interaction (Kinase panel (KiNativ target engagement assay in Jurkat cells)) EUB0001635a CSNK1A1; assay type: cell-based; conditions: Selectivity number of off-targets 0.0, Selectivity number of targets 233.0, Source Knowledge https://www.sciencedirect.com/science/article/pii/S2451945619300674?via%3Dihub, at 1 µM
[3] = target: T1, Phosphatidylinositol 5-phosphate 4-kinase type-2 beta (Homo sapiens) (UniProt P78356); test: Selectivity interaction (KinomeScan (DiscoverX)) EUB0000666a PIP4K2B; conditions: at 10 µM
T1 sequence (whole entry): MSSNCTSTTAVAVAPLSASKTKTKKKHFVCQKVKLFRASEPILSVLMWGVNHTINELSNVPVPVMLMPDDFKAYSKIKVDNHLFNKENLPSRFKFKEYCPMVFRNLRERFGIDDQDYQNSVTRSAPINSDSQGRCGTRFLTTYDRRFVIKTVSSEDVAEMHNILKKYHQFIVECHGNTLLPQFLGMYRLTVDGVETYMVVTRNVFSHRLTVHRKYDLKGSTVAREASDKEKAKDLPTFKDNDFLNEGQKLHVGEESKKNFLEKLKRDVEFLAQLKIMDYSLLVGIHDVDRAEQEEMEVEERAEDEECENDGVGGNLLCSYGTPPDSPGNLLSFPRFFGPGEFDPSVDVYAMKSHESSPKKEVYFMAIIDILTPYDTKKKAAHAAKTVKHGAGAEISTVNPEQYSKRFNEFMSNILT

[4] = target: Dual specificity protein kinase CLK4 (Homo sapiens, UniProt Q9HAZ1); test: Selectivity interaction (LanthaScreen Eu Kinase Binding Assay) EUB0001632a CLK4; conditions: at 10 µM
[5] = target: MAP kinase-activated protein kinase 3 (Homo sapiens) (UniProt Q16644); test: Selectivity interaction (ActivX KiNativ screen (kinase selectivity in THP-1 cell lysates)) EUB0000639a MAPKAPK3; assay type: subcellular; conditions: lysate
[6] = target: ALK tyrosine kinase receptor (Homo sapiens, UniProt Q9UM73); test: Selectivity interaction (SelectScreen profiling (Invitrogen)) EUB0000607a ALK; conditions: at 2 µM
[7] = target: Wee1-like protein kinase 2 (Homo sapiens) (UniProt P0C1S8); test: Selectivity interaction (KinomeScan (DiscoverX)) EUB0000607a WEE2; conditions: at 10 µM
[8] = target: Platelet-derived growth factor receptor alpha (Homo sapiens, UniProt P16234); test: Selectivity interaction (KinomeScan (DiscoverX)) EUB0001049a PDGFRA; conditions: at 1 µM
[9] = target: T2, Inhibitor of nuclear factor kappa-B kinase subunit alpha (Homo sapiens) (UniProt O15111); test: Selectivity interaction (KinomeScan (DiscoverX)) EUB0000618a CHUK; conditions: at 10 µM
T2 sequence (whole entry): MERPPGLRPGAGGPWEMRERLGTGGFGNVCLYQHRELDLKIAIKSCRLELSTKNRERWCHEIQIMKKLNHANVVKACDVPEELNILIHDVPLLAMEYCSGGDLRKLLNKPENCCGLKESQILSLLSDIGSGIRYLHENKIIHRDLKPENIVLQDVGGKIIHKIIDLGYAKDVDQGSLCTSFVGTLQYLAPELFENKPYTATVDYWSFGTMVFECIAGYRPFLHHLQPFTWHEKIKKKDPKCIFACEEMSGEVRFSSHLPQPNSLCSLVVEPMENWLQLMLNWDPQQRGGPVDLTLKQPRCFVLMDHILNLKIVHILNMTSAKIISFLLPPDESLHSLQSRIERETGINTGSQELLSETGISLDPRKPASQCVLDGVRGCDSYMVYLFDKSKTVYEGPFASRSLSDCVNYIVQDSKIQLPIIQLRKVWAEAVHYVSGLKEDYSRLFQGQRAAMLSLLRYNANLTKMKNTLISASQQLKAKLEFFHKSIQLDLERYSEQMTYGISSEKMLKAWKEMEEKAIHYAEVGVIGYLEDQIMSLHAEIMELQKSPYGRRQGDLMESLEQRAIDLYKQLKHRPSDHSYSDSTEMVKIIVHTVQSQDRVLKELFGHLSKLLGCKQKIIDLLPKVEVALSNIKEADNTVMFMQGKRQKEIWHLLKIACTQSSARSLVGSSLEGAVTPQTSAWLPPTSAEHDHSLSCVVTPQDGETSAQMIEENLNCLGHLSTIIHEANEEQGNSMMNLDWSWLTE

[10] = target: Protein arginine N-methyltransferase 8 (Homo sapiens, UniProt Q9NR22); conditions: at 10 µM
[11] = target: T3, Mitogen-activated protein kinase 12 (Homo sapiens) (UniProt P53778); test: Selectivity interaction (KinomeScan (DiscoverX)) EUB0001619a MAPK12; conditions: at 1 µM
T3 sequence (whole entry): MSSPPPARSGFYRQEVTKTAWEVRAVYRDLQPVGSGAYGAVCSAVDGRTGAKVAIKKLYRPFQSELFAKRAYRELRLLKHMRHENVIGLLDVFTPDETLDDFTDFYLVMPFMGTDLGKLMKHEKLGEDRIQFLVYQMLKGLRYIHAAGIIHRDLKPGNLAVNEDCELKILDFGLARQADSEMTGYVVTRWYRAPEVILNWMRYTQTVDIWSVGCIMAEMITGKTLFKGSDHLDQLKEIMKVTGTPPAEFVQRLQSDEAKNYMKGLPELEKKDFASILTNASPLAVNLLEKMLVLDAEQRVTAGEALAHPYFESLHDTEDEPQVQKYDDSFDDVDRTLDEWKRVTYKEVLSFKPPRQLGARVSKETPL

[12] = target: T4, Mitogen-activated protein kinase 15 (Homo sapiens) (UniProt Q8TD08); test: Selectivity interaction (KinomeScan (DiscoverX)) EUB0001619a MAPK15; conditions: at 1 µM
T4 sequence (whole entry): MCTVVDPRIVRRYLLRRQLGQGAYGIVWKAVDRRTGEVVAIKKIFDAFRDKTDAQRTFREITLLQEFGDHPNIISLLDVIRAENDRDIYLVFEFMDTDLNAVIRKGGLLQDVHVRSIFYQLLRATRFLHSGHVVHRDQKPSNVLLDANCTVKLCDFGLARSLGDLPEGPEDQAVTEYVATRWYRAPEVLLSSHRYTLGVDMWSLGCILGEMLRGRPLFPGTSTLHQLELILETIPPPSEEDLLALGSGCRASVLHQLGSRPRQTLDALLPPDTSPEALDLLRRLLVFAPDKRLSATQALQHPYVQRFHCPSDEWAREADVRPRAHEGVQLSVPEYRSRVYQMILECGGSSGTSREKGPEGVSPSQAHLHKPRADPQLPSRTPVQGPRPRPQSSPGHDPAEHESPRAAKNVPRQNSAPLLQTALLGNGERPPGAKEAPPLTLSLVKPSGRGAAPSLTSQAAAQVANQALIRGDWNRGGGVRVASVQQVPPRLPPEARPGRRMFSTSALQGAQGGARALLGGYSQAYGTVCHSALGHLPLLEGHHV

Sequence of MAP kinase-activated protein kinase 3 (Homo sapiens) (Q16644 whole entry, looked up): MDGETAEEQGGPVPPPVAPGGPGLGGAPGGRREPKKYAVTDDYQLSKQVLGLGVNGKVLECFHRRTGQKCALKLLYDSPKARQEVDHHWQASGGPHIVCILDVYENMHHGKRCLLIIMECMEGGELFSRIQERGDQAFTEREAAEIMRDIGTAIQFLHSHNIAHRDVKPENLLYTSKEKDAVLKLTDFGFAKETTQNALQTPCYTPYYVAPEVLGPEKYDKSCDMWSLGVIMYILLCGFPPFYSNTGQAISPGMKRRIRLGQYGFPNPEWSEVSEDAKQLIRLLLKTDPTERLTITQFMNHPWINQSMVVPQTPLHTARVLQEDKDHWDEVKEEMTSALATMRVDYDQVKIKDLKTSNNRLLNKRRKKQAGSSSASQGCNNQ
Sequence of Wee1-like protein kinase 2 (Homo sapiens) (P0C1S8 whole entry, looked up): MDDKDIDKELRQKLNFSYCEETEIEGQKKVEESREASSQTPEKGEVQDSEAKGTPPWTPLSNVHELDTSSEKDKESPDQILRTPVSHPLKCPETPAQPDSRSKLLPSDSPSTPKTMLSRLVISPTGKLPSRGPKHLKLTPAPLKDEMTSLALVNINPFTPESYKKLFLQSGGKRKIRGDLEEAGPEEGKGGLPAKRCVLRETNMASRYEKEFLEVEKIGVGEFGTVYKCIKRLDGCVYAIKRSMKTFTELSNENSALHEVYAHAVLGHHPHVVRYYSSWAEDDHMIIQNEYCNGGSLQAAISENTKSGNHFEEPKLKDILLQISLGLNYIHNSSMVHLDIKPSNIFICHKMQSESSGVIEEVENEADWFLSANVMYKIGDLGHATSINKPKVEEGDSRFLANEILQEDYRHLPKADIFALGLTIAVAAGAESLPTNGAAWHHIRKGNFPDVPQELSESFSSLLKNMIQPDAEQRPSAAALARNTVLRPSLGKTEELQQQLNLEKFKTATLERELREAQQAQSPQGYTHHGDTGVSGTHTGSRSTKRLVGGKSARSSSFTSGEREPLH
Sequence of Dual specificity protein kinase CLK4 (Q9HAZ1 whole entry, looked up): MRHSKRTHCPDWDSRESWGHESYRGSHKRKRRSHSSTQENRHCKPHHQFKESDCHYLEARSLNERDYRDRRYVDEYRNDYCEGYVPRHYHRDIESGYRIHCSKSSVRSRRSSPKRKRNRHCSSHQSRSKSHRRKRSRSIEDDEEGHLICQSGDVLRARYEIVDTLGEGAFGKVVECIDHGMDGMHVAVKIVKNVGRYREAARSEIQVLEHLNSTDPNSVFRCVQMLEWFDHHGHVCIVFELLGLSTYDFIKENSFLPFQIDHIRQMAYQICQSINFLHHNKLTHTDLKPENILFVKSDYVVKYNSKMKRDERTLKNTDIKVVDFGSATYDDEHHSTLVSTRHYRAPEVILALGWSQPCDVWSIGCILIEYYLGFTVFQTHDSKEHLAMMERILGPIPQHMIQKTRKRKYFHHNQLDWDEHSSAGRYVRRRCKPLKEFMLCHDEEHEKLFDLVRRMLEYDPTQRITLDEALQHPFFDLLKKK
Sequence of Platelet-derived growth factor receptor alpha (P16234 whole entry): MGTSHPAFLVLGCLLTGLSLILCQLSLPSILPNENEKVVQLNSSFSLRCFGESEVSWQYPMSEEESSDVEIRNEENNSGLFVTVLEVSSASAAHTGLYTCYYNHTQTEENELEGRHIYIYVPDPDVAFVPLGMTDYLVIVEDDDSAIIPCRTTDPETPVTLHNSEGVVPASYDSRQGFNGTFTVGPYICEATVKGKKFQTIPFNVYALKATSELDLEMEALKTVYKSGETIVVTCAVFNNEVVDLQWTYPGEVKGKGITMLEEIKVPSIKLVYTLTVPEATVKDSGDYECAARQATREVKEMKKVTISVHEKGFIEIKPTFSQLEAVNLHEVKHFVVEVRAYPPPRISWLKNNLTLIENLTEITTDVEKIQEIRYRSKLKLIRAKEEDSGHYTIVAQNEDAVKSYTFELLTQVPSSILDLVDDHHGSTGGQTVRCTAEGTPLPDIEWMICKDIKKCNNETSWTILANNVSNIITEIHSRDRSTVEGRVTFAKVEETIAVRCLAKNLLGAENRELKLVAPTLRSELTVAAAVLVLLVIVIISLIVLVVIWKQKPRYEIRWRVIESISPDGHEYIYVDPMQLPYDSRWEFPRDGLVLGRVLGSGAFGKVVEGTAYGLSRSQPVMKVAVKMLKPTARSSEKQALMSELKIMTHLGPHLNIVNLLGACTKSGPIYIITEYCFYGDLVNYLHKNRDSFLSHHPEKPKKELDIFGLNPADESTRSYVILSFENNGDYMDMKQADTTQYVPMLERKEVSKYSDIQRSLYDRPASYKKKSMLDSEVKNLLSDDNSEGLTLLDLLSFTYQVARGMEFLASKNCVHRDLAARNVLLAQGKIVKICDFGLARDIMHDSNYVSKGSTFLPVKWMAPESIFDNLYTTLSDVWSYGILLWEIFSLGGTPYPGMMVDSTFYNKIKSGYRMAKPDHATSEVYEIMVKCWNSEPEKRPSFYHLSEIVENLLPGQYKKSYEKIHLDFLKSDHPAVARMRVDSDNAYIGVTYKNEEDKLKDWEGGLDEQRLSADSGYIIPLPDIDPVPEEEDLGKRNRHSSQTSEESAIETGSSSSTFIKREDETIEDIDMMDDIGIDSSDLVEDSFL
Sequence of Casein kinase I isoform alpha (P48729 2-337 limits assumed): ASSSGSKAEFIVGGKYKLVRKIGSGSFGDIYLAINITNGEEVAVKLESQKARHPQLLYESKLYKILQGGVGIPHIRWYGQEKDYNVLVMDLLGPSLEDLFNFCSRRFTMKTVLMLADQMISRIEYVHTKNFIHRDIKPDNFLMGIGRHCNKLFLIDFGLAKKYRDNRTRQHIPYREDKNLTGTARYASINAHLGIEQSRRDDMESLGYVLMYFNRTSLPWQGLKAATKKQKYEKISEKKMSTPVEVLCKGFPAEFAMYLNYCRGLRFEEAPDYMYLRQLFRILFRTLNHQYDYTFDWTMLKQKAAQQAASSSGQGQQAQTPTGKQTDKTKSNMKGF
Sequence of ALK tyrosine kinase receptor (Q9UM73 19-1620 limits assumed): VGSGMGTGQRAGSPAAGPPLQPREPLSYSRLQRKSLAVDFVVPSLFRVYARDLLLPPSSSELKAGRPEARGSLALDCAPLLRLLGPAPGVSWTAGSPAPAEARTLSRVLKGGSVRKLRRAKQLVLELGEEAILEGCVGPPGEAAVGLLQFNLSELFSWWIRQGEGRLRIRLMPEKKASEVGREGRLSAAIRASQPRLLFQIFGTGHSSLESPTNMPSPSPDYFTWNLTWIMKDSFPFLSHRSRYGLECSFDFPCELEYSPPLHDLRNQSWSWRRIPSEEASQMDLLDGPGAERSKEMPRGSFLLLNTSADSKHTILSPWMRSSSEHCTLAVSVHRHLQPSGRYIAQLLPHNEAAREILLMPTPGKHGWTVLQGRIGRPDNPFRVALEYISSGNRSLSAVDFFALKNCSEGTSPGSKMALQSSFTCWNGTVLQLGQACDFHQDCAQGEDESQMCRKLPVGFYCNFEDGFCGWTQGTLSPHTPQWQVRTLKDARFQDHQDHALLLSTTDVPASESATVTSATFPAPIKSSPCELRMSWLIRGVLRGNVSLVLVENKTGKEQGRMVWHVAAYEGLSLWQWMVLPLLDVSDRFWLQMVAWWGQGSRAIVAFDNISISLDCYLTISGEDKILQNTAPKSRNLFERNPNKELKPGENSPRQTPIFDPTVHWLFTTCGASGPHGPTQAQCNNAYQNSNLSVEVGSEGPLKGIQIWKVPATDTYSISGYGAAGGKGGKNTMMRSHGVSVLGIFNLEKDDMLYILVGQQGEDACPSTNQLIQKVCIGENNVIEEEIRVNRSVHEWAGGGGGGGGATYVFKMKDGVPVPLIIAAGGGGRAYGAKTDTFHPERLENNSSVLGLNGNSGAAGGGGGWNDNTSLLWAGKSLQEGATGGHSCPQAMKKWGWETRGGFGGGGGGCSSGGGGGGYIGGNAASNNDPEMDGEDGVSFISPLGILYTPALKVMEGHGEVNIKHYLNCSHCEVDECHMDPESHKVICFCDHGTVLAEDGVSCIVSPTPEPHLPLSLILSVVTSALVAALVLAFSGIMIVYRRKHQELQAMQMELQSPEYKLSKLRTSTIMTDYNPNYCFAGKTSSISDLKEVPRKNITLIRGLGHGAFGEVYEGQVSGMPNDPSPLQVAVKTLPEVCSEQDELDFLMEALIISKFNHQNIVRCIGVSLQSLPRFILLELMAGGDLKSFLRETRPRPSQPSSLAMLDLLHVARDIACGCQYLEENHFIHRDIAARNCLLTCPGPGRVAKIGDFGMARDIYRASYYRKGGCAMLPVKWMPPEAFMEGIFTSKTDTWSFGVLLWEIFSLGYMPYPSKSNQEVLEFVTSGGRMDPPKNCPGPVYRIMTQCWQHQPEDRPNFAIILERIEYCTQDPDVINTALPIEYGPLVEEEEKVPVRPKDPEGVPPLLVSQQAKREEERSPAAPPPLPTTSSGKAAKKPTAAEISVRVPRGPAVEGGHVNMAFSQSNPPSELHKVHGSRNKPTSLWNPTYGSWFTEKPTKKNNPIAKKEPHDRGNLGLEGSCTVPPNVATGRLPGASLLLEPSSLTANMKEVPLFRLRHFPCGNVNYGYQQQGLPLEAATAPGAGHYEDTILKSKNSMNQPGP
Sequence of Protein arginine N-methyltransferase 8 (Q9NR22 2-394 limits assumed): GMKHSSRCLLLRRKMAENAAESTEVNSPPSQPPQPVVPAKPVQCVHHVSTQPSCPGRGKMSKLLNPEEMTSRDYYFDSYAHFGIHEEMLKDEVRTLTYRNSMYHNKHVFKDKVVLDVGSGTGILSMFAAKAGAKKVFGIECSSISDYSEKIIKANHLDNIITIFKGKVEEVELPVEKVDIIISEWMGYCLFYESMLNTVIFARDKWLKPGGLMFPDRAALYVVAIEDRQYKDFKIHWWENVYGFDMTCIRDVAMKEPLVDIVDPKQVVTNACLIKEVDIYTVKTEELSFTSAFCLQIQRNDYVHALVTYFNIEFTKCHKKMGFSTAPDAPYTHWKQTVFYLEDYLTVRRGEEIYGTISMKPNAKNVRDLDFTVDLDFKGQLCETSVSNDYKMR

CN(C)CCOc1ccc(-c2nc(-c3ccncc3)c(-c3ccc4c(c3)CC/C4=N\O)[nH]2)cc1
% of control [1]: 75%

C=CC(=O)Nc1ccc(C(=O)Nc2[nH]nc3c2CN(C(=O)N[C@H](CN(C)C)c2ccccc2)C3(C)C)cc1
% of engagement [2]: -2%

O=C(NOC[C@H](O)CO)c1ccc(F)c(F)c1Nc1ccc(I)cc1F
% of control [3]: 100%

Cn1cc(-n2cnc3c(NCc4nc5cc(Cl)c(Cl)cc5[nH]4)nc(N4CCOCC4)nc32)cn1
% of inhibition [4]: 12.3%

CC[C@@H]1[C@H](F)C(=O)N[C@@H]1COc1nccc2cc(C(N)=O)c(OC)cc12 [ZIMLOVISERTIB]
% of inhibition ([5]; at 0.01 µM): 3.3% | % of inhibition ([5]; at 0.04 µM): 10.6% | % of inhibition ([5]; at 0.2 µM): 6.9% | % of inhibition ([5]; at 1 µM): -0.7% | % of inhibition ([5]; at 5 µM): 4.9%

CNC(=O)Nc1ccc(-c2nc(N3CC4CCC(C3)O4)c3cnn(C4CCC5(CC4)OCCO5)c3n2)cc1
% of inhibition [6]: 0% | % of control [7]: 100%

COc1cc(Nc2nc(C)cc(-c3cnn4nc(OC)ccc34)n2)cc(C(F)(F)F)c1
% of control [8]: 69%

O[C@H]1CC[C@H](Nc2ncc3nc(Nc4c(F)cc(F)cc4F)n([C@H]4CCOC4)c3n2)CC1
% of control [9]: 86%

CNCCN1CCC(c2cc(CN(C)C(=O)c3cccc(Oc4ccccc4)c3)ccn2)CC1
% activity [10]: 82%

N#Cc1cccc(-c2c[nH]c3ncnc(N4CCOCC4)c23)c1
% of control [11]: 100% | % of control [12]: 56%
